The results in this text go back to ChEMBL document CHEMBL3352267, “The design and implementation of a generic lipopeptide scanning platform to enable the identification of 'locally acting' agonists for the apelin receptor” (Bioorg Med Chem Lett, 2014).

Assay [1] concerns the target T1, Muscarinic acetylcholine receptor M2 (Homo sapiens, UniProt P08172).
T1 sequence (P08172 whole entry): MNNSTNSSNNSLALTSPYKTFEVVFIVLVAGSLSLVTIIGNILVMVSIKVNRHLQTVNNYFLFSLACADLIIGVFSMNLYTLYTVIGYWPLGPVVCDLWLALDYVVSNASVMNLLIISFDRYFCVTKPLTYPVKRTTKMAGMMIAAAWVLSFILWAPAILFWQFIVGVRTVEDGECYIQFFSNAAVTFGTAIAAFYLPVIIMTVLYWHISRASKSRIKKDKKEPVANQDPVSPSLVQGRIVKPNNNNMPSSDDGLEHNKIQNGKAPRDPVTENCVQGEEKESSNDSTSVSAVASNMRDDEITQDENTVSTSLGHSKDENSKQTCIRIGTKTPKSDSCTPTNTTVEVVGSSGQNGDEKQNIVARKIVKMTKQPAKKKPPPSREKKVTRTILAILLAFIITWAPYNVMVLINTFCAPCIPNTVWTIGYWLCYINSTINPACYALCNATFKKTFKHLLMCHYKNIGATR
Description: Agonist activity at muscarinic acetylcholine receptor M2 (unknown origin) expressed in CHOK1 cells after 3 mins by calcium flux/FLIPR assay. In kind it is functional, cell-based, CHO-K1. Background: Calcium flux is commonly read through the fluorescence of an indicator in the cells.

In assay [2] the target is T2, 5-hydroxytryptamine receptor 2A (Homo sapiens, UniProt P28223). Kind of assay: Agonist activity at 5HT2A receptor (unknown origin) expressed in CHOK1 cells after 3 mins by calcium flux/FLIPR assay. In kind it is functional, cell-based, CHO-K1.
T2 sequence (P28223 whole entry): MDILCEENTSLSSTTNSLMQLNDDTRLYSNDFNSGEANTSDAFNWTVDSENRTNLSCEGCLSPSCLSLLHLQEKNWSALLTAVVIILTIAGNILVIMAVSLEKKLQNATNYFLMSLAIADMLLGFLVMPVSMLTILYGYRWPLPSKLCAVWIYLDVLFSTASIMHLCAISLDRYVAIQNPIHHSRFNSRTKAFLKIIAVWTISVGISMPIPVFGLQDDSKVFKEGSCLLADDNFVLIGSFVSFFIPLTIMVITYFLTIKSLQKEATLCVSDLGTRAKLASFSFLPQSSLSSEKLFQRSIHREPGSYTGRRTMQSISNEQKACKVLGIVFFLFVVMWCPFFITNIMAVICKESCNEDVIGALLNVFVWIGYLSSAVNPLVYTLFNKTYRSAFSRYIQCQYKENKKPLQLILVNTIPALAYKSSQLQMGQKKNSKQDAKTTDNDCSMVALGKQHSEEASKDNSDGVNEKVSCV
Assay [3] addresses T2, 5-hydroxytryptamine receptor 2A. Kind of assay: Antagonist activity at 5HT2A receptor (unknown origin) expressed in CHOK1 cells after 15 mins by calcium flux/FLIPR assay in presence of 5HT. It is filed as functional, cell-based, CHO-K1.
Assay [4] addresses T3, 5-hydroxytryptamine receptor 1A (Homo sapiens, UniProt P08908).
T3 sequence (P08908 whole entry): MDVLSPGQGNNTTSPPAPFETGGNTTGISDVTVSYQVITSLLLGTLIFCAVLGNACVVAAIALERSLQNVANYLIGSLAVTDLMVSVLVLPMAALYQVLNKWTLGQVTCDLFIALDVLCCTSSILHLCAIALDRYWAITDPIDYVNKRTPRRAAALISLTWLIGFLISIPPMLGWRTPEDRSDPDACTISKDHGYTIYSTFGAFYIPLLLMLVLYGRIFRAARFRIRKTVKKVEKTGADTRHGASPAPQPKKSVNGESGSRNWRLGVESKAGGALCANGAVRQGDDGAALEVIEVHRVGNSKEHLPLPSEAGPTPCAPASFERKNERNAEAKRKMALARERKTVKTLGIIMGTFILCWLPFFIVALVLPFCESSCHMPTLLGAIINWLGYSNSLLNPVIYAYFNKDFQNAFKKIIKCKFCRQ
Kind of assay: Agonist activity at 5HT1A receptor (unknown origin) expressed in HeLa cells after 3 mins by calcium flux/FLIPR assay. In kind it is functional, cell-based.

Assay [5] concerns the target T4, Cannabinoid receptor 1 (Homo sapiens, UniProt P21554). Kind of assay: Antagonist activity at CB1 receptor (unknown origin) expressed in rat CHEM-1 cells after 15 mins by calcium flux/FLIPR assay in presence of CP55940. In kind it is functional, cell-based.
In assay [6] the target is T5, Thromboxane A2 receptor (Homo sapiens, UniProt P21731).
T5 sequence (P21731 whole entry): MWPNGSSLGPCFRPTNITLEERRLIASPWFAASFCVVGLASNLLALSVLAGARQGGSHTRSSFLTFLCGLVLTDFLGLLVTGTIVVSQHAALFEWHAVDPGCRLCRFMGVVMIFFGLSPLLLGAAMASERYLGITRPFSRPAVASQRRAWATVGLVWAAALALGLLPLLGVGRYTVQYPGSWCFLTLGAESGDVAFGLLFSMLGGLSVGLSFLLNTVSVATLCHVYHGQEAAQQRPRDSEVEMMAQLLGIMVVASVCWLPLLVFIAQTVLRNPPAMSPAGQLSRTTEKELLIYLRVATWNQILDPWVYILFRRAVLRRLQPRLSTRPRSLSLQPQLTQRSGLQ
Kind of assay: Antagonist activity at thromboxane A2 receptor (unknown origin) expressed in HEK293-EBNA cells after 15 mins by calcium flux/FLIPR assay in presence of U-46619. It is filed as functional, cell-based.

The target of assay [7] is T6, D(1A) dopamine receptor (Homo sapiens, UniProt P21728). Description: Agonist activity at D1A receptor (unknown origin) expressed in CHOK1 cells by HTRF cAMP immunoassay. It is filed as functional, cell-based, CHO-K1. A general note: Time-resolved FRET reads energy transfer from a long-lived donor to a nearby acceptor.
T6 sequence (P21728 whole entry): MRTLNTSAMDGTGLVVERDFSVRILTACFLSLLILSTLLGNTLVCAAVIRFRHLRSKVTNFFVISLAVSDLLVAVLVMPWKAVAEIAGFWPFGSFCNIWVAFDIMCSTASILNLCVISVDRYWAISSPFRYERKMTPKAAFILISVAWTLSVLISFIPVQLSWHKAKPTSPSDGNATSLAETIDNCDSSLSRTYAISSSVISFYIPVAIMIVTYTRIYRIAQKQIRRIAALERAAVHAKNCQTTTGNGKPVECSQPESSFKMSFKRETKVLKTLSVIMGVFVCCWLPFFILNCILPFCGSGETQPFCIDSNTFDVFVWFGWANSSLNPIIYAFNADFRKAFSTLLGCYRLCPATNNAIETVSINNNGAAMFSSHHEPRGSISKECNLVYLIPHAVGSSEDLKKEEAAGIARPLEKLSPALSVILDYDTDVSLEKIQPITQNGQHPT
Assay [8] deals with T7, D(4) dopamine receptor (Homo sapiens) (UniProt P21917).
T7 sequence (whole entry): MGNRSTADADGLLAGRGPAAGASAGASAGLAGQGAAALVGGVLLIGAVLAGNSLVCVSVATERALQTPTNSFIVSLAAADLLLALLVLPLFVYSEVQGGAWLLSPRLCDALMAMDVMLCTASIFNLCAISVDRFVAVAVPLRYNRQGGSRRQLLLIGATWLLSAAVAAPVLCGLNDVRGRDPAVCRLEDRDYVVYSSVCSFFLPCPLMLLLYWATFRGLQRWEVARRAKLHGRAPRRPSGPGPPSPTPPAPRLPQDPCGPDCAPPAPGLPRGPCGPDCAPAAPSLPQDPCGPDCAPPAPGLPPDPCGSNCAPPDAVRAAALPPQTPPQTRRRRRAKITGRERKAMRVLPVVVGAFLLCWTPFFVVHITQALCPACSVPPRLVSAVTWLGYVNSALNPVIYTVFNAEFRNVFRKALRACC
Description: Agonist activity at human D4 receptor expressed in Chem-5 cells assessed as calcium mobilization by FLIPR assay. In kind it is functional, cell-based.

In assay [9] the target is T8, Alpha-1A adrenergic receptor (Homo sapiens, UniProt P35348).
T8 sequence (P35348 whole entry): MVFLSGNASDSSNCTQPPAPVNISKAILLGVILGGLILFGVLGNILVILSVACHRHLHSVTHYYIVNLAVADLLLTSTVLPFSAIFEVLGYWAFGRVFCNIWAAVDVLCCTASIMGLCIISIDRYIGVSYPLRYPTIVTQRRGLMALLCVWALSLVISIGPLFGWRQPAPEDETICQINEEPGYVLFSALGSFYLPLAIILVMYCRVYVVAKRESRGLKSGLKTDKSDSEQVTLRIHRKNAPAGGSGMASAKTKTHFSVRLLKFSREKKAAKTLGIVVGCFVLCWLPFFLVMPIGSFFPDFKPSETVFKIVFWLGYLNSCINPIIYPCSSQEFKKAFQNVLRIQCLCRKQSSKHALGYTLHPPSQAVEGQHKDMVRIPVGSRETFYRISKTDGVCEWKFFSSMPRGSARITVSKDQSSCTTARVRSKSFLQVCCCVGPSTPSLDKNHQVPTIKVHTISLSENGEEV
Kind of assay: Agonist activity at alpha-1A adrenergic receptor (unknown origin) expressed in CHOK1 cells after 3 mins by calcium flux/FLIPR assay. It is filed as functional, cell-based, CHO-K1.

The target of assay [10] is T3, 5-hydroxytryptamine receptor 1A. Kind of assay: Antagonist activity at 5HT1A receptor (unknown origin) expressed in HeLa cells after 15 mins by calcium flux/FLIPR assay in presence of R-(+)-8-OH-DPAT. It is filed as functional, cell-based.
In assay [11] the target is T5, Thromboxane A2 receptor. Description: Agonist activity at thromboxane A2 receptor (unknown origin) expressed in HEK293-EBNA cells after 3 mins by calcium flux/FLIPR assay. In kind it is functional, cell-based.
In assay [12] the target is Sphingosine 1-phosphate receptor Edg-5/Sphingosine 1-phosphate receptor Edg-3 (Homo sapiens) (UniProt O95136+Q99500). Description: Agonist activity at S1P2/3 receptor in HEK293 cells assessed as inhibition of forskolin-induced cAMP level after 1 hr by alphascreen immunoassay. In kind it is functional, cell-based. For orientation: cAMP levels reflect the balance of adenylyl cyclase and phosphodiesterase activity.

The target in assay [13] is T8, Alpha-1A adrenergic receptor. Description: Antagonist activity at alpha-1A adrenergic receptor (unknown origin) expressed in CHOK1 cells after 15 mins by calcium flux/FLIPR assay in presence of A-61603. In kind it is functional, cell-based, CHO-K1.
Assay [14] deals with T9, 5-hydroxytryptamine receptor 2B (Homo sapiens, UniProt P41595). Description: Agonist activity at 5HT2B receptor (unknown origin) expressed in CHOK1 cells after 3 mins by calcium flux/FLIPR assay. It is filed as functional, cell-based, CHO-K1.
T9 sequence (P41595 whole entry): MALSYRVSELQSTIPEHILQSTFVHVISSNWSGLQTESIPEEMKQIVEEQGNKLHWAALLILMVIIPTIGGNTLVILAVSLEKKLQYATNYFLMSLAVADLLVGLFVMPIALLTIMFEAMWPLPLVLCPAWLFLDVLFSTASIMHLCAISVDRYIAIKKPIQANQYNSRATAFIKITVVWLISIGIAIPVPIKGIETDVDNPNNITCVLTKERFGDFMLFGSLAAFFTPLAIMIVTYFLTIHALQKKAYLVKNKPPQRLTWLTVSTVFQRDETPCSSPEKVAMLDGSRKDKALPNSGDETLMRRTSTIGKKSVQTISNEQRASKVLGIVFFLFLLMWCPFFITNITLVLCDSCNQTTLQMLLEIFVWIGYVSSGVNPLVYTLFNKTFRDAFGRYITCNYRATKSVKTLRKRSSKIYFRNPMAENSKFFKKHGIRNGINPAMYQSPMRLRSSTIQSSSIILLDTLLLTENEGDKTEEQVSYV
Assay [15] deals with T6, D(1A) dopamine receptor. Kind of assay: Antagonist activity at D1A receptor (unknown origin) expressed in CHOK1 cells after 5 mins by HTRF cAMP immunoassay in presence of cAMP/SKF38393. It is filed as functional, cell-based, CHO-K1.
For assay [16], the target named is T4, Cannabinoid receptor 1. Kind of assay: Agonist activity at CB1 receptor (unknown origin) expressed in rat CHEM-1 cells after 3 mins by calcium flux/FLIPR assay. It is filed as functional, cell-based.
The target of assay [17] is T1, Muscarinic acetylcholine receptor M2. Kind of assay: Antagonist activity at muscarinic acetylcholine receptor M2 (unknown origin) expressed in CHOK1 cells after 15 mins by calcium flux/FLIPR assay in presence of acetylcholine. In kind it is functional, cell-based, CHO-K1.
The target of assay [18] is T9, 5-hydroxytryptamine receptor 2B. Description: Antagonist activity at 5HT2B receptor (unknown origin) expressed in CHOK1 cells after 15 mins by calcium flux/FLIPR assay in presence of BW723C86. It is filed as functional, cell-based, CHO-K1.
Assay [19] deals with Beta-2 adrenergic receptor (Homo sapiens, UniProt P07550). Description: Agonist activity at beta-2 adrenergic receptor (unknown origin) expressed in CHOK1 cells by HTRF cAMP immunoassay. It is filed as functional, cell-based, CHO-K1.
Sequence of Beta-2 adrenergic receptor (P07550 whole entry): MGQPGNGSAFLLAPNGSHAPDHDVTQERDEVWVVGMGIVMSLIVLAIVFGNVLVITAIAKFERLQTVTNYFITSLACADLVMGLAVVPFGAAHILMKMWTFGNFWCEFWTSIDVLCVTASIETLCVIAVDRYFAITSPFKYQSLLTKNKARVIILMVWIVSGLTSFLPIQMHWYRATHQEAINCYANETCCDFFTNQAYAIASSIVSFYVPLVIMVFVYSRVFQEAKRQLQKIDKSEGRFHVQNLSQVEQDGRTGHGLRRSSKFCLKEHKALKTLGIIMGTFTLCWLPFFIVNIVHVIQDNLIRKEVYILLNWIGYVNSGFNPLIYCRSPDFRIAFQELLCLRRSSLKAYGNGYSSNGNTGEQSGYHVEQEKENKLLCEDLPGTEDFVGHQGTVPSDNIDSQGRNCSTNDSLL

The source made the active and inactive calls. The calls are words filed in the database; no cut-off is given here. Residues, ends and D or L forms follow the SMILES beside them. *: point of attachment. Palmitoyl = CCCCCCCCCCCCCCCC(=O)*

T4 sequence (P21554 whole entry): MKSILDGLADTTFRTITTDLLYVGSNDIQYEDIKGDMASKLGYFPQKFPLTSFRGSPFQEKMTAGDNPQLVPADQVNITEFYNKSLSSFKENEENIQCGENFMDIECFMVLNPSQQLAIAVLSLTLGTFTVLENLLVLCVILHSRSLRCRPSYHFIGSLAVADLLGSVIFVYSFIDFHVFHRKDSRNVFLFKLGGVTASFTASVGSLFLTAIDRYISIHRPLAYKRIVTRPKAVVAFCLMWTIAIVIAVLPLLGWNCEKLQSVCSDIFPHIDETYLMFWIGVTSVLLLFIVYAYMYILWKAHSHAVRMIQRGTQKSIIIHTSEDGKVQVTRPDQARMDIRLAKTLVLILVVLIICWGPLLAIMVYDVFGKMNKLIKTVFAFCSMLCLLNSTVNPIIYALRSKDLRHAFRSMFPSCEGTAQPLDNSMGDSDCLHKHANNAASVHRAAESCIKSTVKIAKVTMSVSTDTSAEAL

A word on the EC50: it is the midpoint of the concentration-response curve. By IC50 is commonly meant the concentration at which inhibition is half-maximal. As for `CCCCCCCCCCCCCCCC(=O)N[C@H](C(=O)N[C@H](C(=O)N[C@@H](CC(C)C)C(=O)N1CCC[C@H]1C(=O)N[C@@H](CC(C)C)C(=O)N[C@@H](Cc1c[nH]c2ccccc12)C(=O)N[C@@H](C)C(=O)N[C@H](C(=O)N[C@@H](Cc1ccc(O)cc1)C(=O)N[C@H](C(=O)N[C@@H](Cc1ccc(O)cc1)C(=O)N[C@@H](CCCNC(=N)N)C(N)=O)[C@@H](C)O)[C@@H](C)O)[C@@H](C)O)C(C)C` (Palmitoyl-VTLPLWATYTYR-NH2), the EC50 (in assay [1]; in [2]; in assay [4]; on D(1A) dopamine receptor [7]; in assay [9]; at Thromboxane A2 receptor [11]) was above 30 µM throughout. Also, the EC50 (in assay [14]; at Cannabinoid receptor 1 [16]; in assay [19]) was above 30 µM each time. Besides, the IC50 (in [3]; on Cannabinoid receptor 1 [5]; on Thromboxane A2 receptor [6]; in assay [10]; in [13]; on D(1A) dopamine receptor [15]) was above 30 µM throughout. In addition, the IC50 in [17] and in [18] was above 30 µM throughout. Further, the outcome in assay [8] and in assay [12] was inactive.
